Where two headings read alike, the source gives them in different places.
Key:
Assay type in all cases: binding
[1] = biological target: T1, HeLa cell extract proteins (Homo sapiens, UniProt P24390)
T1 construct: endogenous in cells; host or cells: HeLa cell extract
T1 sequence (P24390 1-212): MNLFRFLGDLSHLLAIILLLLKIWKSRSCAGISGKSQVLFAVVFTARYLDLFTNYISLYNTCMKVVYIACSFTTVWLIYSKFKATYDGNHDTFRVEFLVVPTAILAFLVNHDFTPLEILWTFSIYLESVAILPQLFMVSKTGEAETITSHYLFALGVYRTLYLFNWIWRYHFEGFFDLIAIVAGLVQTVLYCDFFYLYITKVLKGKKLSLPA

[2] = biological target: T2, HeLa cell extract proteins (Homo sapiens, UniProt Q96JI7)
T2 construct: endogenous in cells; host or cells: HeLa cell extract

[3] = biological target: T3, HeLa cell extract proteins (Homo sapiens, UniProt Q96QU8)
T3 construct: endogenous in cells; host or cells: HeLa cell extract
T3 sequence (Q96QU8 1-1125): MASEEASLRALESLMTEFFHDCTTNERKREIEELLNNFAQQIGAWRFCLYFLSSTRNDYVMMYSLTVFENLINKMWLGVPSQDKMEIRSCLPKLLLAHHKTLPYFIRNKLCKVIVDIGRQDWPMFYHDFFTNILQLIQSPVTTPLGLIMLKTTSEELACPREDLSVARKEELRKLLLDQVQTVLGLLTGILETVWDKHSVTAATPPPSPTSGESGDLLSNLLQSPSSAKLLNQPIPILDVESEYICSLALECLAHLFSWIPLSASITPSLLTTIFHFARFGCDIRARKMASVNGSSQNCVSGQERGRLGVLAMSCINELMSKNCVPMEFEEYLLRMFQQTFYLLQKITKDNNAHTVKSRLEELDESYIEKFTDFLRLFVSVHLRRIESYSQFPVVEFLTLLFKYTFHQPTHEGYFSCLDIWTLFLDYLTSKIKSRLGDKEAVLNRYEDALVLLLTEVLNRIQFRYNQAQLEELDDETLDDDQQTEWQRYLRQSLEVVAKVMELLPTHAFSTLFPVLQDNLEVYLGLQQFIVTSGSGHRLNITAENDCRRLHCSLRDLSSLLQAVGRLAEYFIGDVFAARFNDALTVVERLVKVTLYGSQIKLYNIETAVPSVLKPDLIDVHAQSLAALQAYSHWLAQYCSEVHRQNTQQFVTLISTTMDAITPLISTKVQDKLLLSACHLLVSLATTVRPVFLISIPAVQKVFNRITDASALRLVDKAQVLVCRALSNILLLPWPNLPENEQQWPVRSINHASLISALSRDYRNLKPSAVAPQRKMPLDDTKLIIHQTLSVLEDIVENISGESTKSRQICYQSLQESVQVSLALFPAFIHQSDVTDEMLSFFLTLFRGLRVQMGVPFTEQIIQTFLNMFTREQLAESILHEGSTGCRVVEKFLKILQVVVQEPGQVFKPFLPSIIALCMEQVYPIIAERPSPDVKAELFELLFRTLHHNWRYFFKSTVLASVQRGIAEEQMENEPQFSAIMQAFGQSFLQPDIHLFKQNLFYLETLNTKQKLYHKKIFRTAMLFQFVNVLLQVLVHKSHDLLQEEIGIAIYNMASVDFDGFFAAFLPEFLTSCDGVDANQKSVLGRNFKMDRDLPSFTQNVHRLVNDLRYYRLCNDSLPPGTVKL

[4] = biological target: T4, HeLa cell extract proteins (Homo sapiens, UniProt P45954)
T4 construct: endogenous in cells; host or cells: HeLa cell extract

[5] = biological target: T5, HeLa cell extract proteins (Homo sapiens, UniProt O95817)
T5 construct: endogenous in cells; host or cells: HeLa cell extract

[6] = biological target: T6, HeLa cell extract proteins (Homo sapiens, UniProt P52294)
T6 construct: endogenous in cells; host or cells: HeLa cell extract

[7] = biological target: T7, HeLa cell extract proteins (Homo sapiens, UniProt P40938)
T7 construct: endogenous in cells; host or cells: HeLa cell extract

[8] = biological target: T8, HeLa cell extract proteins (Homo sapiens, UniProt P61088)
T8 construct: endogenous in cells; host or cells: HeLa cell extract
T8 sequence (P61088 1-152): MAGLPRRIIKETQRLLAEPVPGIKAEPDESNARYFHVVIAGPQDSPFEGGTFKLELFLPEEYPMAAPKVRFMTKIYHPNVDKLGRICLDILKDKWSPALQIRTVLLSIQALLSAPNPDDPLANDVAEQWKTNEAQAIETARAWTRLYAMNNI

[9] = biological target: T9, HeLa cell extract proteins (Homo sapiens, UniProt O14979)
T9 construct: endogenous in cells; host or cells: HeLa cell extract
T9 sequence (O14979 1-420): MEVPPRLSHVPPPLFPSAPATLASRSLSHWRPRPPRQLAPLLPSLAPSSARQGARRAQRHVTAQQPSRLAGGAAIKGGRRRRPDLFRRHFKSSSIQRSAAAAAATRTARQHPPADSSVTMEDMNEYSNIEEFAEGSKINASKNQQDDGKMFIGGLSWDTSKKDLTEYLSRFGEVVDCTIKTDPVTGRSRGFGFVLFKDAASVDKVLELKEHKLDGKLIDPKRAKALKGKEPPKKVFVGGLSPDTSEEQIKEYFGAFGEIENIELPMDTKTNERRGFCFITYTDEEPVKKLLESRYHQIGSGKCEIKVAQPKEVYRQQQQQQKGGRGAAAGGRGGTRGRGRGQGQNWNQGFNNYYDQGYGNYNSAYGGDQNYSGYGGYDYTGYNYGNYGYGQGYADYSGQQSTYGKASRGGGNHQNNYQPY

[10] = biological target: T10, HeLa cell extract proteins (Homo sapiens, UniProt Q9BSE5)
T10 construct: endogenous in cells; host or cells: HeLa cell extract
T10 sequence (Q9BSE5 36-352): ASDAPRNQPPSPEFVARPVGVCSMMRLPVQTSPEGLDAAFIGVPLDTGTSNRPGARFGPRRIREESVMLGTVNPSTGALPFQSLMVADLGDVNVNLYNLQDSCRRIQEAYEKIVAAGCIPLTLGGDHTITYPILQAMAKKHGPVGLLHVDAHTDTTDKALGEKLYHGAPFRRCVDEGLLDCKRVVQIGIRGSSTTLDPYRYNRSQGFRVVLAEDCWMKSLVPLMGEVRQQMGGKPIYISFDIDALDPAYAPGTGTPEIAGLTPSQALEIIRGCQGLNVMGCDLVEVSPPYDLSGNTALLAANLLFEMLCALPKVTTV

[11] = biological target: T11, HeLa cell extract proteins (Homo sapiens, UniProt P39687); conditions: protein ANP32A; HeLa
T11 construct: endogenous in cells; host or cells: HeLa cell extract

[12] = biological target: T12, HeLa cell extract proteins (Homo sapiens, UniProt O95433); conditions: protein AHSA1; HeLa
T12 construct: endogenous in cells; host or cells: HeLa cell extract
T12 sequence (O95433 whole entry): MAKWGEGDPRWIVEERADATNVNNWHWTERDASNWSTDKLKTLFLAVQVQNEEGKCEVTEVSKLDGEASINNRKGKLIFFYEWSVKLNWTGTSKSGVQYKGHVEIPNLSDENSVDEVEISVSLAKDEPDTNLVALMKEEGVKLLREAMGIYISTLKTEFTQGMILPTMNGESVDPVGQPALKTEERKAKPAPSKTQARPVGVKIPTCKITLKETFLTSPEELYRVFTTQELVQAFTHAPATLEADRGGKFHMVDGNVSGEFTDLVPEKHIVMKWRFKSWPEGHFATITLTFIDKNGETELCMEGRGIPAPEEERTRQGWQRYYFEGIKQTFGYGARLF

T7 sequence (P40938 whole entry): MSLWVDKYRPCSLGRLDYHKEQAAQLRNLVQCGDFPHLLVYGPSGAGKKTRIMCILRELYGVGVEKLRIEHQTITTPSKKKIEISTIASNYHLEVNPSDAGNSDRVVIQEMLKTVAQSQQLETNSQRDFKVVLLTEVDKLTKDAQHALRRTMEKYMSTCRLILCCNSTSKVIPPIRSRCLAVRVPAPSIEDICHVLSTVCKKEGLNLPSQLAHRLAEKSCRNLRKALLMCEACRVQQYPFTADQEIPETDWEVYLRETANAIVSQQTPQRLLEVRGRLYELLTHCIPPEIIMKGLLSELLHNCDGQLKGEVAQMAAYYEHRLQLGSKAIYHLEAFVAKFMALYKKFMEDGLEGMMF
T11 sequence (P39687 whole entry): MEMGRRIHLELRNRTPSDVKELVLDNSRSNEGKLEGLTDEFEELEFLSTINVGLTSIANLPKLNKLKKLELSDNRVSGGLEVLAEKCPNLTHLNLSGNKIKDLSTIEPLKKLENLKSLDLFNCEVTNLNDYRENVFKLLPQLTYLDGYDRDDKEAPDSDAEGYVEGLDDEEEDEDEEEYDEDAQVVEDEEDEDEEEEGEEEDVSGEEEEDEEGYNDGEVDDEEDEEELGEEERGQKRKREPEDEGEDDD
T5 sequence (O95817 whole entry): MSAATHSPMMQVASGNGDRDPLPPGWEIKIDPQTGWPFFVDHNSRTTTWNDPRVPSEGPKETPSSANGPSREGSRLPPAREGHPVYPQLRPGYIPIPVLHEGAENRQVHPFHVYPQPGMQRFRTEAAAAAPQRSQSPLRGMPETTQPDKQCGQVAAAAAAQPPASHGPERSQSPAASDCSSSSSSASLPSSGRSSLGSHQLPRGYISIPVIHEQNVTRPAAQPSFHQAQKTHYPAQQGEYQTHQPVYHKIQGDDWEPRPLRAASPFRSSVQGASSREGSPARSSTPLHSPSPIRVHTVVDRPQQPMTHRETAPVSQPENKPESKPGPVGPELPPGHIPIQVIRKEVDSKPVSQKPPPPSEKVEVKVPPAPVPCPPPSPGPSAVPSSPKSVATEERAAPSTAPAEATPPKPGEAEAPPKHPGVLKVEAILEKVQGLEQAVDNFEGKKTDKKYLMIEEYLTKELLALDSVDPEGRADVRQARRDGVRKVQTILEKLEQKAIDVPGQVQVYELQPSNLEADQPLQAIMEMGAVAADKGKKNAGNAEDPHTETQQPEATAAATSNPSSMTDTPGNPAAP
T2 sequence (Q96JI7 whole entry): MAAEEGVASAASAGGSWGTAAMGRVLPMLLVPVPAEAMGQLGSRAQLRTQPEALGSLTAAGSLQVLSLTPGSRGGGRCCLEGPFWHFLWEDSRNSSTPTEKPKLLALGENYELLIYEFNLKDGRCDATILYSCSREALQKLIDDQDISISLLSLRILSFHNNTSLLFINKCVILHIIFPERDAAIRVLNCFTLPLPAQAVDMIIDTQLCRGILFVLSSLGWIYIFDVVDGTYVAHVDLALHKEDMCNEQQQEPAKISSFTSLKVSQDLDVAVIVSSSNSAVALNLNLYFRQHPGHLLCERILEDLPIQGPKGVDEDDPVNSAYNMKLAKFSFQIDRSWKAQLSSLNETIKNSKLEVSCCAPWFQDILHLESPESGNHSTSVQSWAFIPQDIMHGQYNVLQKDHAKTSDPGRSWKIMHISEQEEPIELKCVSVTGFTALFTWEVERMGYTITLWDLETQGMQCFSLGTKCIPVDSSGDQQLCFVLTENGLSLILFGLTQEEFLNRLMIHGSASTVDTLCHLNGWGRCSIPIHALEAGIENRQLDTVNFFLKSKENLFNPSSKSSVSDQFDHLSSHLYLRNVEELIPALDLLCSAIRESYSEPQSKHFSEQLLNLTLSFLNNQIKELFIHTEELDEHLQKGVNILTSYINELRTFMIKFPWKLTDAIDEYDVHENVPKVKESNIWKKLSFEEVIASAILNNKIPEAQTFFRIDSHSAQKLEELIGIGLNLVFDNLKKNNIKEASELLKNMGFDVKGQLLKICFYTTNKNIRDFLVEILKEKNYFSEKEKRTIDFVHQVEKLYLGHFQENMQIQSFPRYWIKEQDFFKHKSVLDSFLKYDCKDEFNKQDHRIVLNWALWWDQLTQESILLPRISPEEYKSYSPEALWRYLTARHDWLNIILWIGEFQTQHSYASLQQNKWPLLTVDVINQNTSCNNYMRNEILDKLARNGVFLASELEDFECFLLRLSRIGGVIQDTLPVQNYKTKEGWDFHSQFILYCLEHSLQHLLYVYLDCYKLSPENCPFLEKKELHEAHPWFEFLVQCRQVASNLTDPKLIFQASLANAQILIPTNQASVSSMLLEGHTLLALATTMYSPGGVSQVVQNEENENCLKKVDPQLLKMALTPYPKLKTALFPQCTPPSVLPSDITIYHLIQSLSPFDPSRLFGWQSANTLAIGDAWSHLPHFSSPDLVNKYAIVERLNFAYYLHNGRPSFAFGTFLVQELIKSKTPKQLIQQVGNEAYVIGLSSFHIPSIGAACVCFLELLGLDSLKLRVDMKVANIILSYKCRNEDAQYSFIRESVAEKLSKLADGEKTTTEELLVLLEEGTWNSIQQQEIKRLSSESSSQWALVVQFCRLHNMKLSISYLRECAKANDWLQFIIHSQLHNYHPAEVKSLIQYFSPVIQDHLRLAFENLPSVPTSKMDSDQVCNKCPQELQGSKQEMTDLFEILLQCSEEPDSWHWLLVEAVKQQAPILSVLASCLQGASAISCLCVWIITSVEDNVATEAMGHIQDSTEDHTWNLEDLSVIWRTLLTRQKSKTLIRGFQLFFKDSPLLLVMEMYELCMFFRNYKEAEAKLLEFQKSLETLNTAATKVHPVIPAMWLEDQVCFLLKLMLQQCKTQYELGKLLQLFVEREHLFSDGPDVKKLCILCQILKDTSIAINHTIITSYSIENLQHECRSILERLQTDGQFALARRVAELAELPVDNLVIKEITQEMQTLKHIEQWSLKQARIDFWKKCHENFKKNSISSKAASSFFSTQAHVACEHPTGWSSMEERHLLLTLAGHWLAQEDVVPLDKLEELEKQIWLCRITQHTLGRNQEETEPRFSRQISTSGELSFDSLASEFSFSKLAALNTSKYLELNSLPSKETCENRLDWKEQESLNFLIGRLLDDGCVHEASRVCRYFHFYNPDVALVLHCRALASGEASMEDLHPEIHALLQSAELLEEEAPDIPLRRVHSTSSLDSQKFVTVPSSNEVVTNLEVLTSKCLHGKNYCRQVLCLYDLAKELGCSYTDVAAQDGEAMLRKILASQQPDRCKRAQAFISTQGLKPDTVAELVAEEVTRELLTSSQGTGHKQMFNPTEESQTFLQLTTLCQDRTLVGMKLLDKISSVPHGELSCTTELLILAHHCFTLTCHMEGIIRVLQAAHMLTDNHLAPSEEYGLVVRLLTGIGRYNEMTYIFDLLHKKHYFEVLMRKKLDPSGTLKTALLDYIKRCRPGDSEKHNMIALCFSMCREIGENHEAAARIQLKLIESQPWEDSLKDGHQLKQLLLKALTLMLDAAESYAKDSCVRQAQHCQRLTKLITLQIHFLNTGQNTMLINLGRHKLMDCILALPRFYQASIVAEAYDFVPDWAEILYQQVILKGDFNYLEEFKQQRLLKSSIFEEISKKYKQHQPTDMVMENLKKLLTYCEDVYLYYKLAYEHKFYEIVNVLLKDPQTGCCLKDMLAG
T6 sequence (P52294 whole entry): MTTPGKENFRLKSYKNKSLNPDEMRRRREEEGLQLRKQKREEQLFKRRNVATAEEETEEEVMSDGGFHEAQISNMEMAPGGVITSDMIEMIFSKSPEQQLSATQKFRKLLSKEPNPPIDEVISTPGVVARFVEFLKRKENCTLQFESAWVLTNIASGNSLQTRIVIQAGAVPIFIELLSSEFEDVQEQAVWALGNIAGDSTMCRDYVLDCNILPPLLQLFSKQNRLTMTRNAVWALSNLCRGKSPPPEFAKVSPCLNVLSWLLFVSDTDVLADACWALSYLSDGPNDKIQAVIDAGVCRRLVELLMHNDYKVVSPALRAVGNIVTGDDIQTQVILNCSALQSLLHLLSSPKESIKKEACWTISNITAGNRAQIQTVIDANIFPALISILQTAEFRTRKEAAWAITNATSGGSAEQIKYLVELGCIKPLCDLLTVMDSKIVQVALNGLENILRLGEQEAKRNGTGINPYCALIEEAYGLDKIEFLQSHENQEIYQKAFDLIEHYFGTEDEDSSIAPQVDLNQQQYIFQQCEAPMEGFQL

Structure (SMILES) | fold changes relative to vehicle control ([1]; HeLa, protein KDELR1) | fold changes relative to vehicle control ([2]; protein SPG11, HeLa) | fold changes relative to vehicle control ([3]; HeLa, protein XPO6) | fold changes relative to vehicle control ([4]; HeLa, protein ACADSB) | fold changes relative to vehicle control ([5]; HeLa, protein BAG3) | fold changes relative to vehicle control ([6]; HeLa, protein KPNA1) | fold changes relative to vehicle control ([7]; HeLa, protein RFC3) | fold changes relative to vehicle control ([8]; HeLa, protein UBE2N) | fold changes relative to vehicle control ([9]; HeLa, captured protein HNRPDL) | fold changes relative to vehicle control ([10]; protein AGMAT, HeLa) | fold changes relative to vehicle control [11] | fold changes relative to vehicle control [12] | other results
Nc1nc2c(c(=O)[nH]1)N(C=O)C(CNc1ccc(C(=O)N[C@@H](CCC(=O)O)C(=O)O)cc1)CN2 (stereo partly shown) [LEU, leucovorin] | 1.06 | 1.3 | 0.99 | 0.9 | 0.91 | 0.9 | 0.99 | 1.06 | 1.09 | 0.84 |  |  | 
Nc1nc2[nH]cc(CCc3ccc(C(=O)N[C@@H](CCC(=O)O)C(=O)O)cc3)c2c(=O)[nH]1 [PTX, pemetrexed] |  |  |  |  |  |  |  |  |  |  |  |  | fold changes relative to vehicle control [1]: 1.16; fold changes relative to vehicle control [2]: 1.38; fold changes relative to vehicle control [3]: 0.98; fold changes relative to vehicle control [4]: 0.93; fold changes relative to vehicle control [5]: 0.96; fold changes relative to vehicle control [6]: 0.87; fold changes relative to vehicle control [7]: 1.01; fold changes relative to vehicle control [8]: 1.83; fold changes relative to vehicle control [9]: 1.02; fold changes relative to vehicle control [10]: 0.89
CCCCCCOc1ccc(Cc2cnc(N)nc2N)cc1 [compound 1] |  |  |  |  |  |  |  |  |  |  | 1.44 | 1.17 | 
CCCCCCOc1cccc(Cc2cnc(N)nc2N)c1 [compound 2] |  |  |  |  |  |  |  |  |  |  | 2.37 | 1.63 | 
Nc1nc2cccc(-c3ccccc3)c2n1Cc1ccc(Cl)c(Cl)c1 [compound 3] |  |  |  |  |  |  |  |  |  |  | 0.78 | 1.24 | 
NCCOCCOCC(=O)Nc1nc2ncc(CNc3ccc(C(=O)NC(CCC(=O)O)C(=O)O)cc3)nc2c(=O)[nH]1 (stereo not shown) [compound 6] | 2.19 | 1.86 | 1.09 | 0.96 | 1.17 | 0.98 | 1.14 | 1.78 | 1.06 | 0.97 |  |  | 
NCCCNc1ccc(C(=O)NC(CCC(=O)O)C(=O)O)cc1 (stereo not shown) [compound 7] | 1.25 | 1.54 | 1.08 | 1.02 | 0.89 | 0.93 | 1.16 | 1.19 | 1.03 | 0.93 |  |  | 

Reference: paper PMC6199744, “Development of Chemical Proteomics for the Folateome and Analysis of the Kinetoplastid Folateome” (ACS Infectious Diseases, 2018)
